For orientation: melting point means the temperature, or range, at which the solid turns liquid.

In the case of `Cc1cc2c(cc1N1CCCCCC1)OC(=O)C2C` (stereo not given), the melting point lay within 58 to 60 °C.
Consider `CCCCCc1cnc(N2CCC(c3ccc(COc4ccc(C#N)c(F)c4)nc3)CC2)nc1`, for which the melting point is 92 to 94 °C.
Take `CCOc1cc(C=C2SC(=S)N(N(C)C)C2=O)ccc1O`: the melting point lay in the range of 194 to 198 °C.
In turn, `CCOC(=O)Cn1c(=O)sc2cc(-c3ccccc3)c(Cl)cc21` showed a melting point of 130 to 131 °C.
In turn, `CC(C)Cn1c(CNC(=O)OC(C)(C)C)c(-c2ccccc2F)c2cc(OCc3ccccc3)ccc2c1=O` showed a melting point of 138 to 139 °C.
`OCc1csc(N2CCSCC2)n1`: the melting point lay in the range of 83 to 84 °C.
For `COc1ccc(Cc2sccc2OC2OC(COC(C)=O)C(OC(C)=O)C(OC(C)=O)C2OC(C)=O)cc1` (stereo not given), the melting point lay in the range of 116 to 118 °C.
`COc1cc2c(cc1Nc1ncc(Cl)c(Nc3ccccc3S(=O)(=O)N3CCC(O)C3)n1)CCNC(=O)C2` (stereo not given) displayed a melting point of 86 to 97 °C.
In the case of `CCCCCC(=O)N(NC(=O)c1ccccc1)C(C)(C)C` it was 117 to 118 °C; in that of `Cn1cc(C=O)c(=O)c2cc(C(F)(F)F)ccc21`, 205 °C.
Take `C=C(C)COc1cc2c(c(C)c1C)N(C=O)CC2`: the melting point lay in the range of 81 to 83 °C.
In the case of `O=C(O)c1ccc(C#CC=Cc2ccccc2-c2ccc(Cl)cc2)cc1` it was 135 °C; in that of `COc1ccc(C2CNCc3c(C)cccc32)cc1OC` (stereo not given), 86 to 88 °C; in that of `O=C1CN(c2ccccc2)C(=O)N1S(=O)(=O)c1ccc(Oc2ccccc2)cc1`, 157 to 158 °C.
With `CCOC(=O)c1cc(OCc2ccccc2)c2nc(C)n(C)c2c1`, the melting point stood at 152 °C.
As for `Cc1cc(C)c(S(=O)(=O)N(C)C)cc1[N+](=O)[O-]`, the melting point came out at 113 °C.
Consider `CCCCCCCCCCCCCCNC(=O)c1cc(N)cc(C(=O)NCCCCCCCCCCCCCC)c1`, for which the melting point was in the range of 171 to 178 °C.
`COc1cc(S(C)(=O)=O)ccc1OCc1ccc(C2CCN(C(=O)OC(C)(C)C)CC2)cn1` gave a melting point of 135 to 138 °C.
With `O=C(O)Cc1ccc(CCCSc2ccc(Cl)cc2)cc1`, the melting point was 94 to 96 °C.
For the molecule `O=C(Nc1ccc(C(=O)N2C[C@@H]3C[C@@H](O)CN3C(=O)c3ccccc32)cc1)c1ccccc1-c1ccccc1`, the melting point lay in the range of 176 to 178 °C.
Consider `CCc1ccc(Nc2nc3cc(NC(=O)c4cccc(CCl)c4)ccc3o2)cc1`, for which the melting point lay in the range of 194 to 195 °C.
For the molecule `O=C(O)c1n[nH]c2c1C=CC(c1ccccc1)(c1ccccc1)C2`, the melting point was greater than 260 °C.
For `C1=C(N2c3ccccc3Sc3ccccc32)N(C2=NCCC2)CC1`, the melting point was 199 to 201 °C.
Consider `O=C(O)Cc1ccc2oc(-c3ccc(N4C=CC=CN4c4ccc(-c5nc6cc(CC(=O)O)ccc6o5)cc4)cc3)nc2c1`, for which the melting point is greater than 300 °C.
For the molecule `Cc1ccc(C(=O)Nc2ccccc2O)cc1F`, the melting point was in the range of 181 to 183 °C.
`C#CCSc1nc(-c2ccccc2)no1`: the melting point came out at 39.4 °C.
Take `O=C(O)[C@H](Cc1cccc(OCC(F)(F)C(F)F)c1)[C@@H](O)c1ccc(F)cc1` (racemic): the melting point lay in the range of 114 to 115 °C.
In turn, `Cn1nc(OCc2ccccc2)cc1C=O` gave a melting point of 49.5 to 50.5 °C.
On to `Cc1noc(-c2ncn3c2cnc2ccccc23)n1`, for which the melting point lay in the range of 269 to 270 °C.
For the molecule `Nc1ccc2[nH]c(=O)cc(CCN3CCC(c4c[nH]c5ccccc45)CC3)c2c1`, the melting point lay within 214 to 216 °C.
As for `CS(=O)(=O)Nc1cc2oc(C(=O)O)cc(=O)c2cc1Oc1ccccc1`, the melting point was greater than 250 °C.
Molecule `CN(CCN(C)CCN1C(=O)c2cccc3cc4ccccc4c(c23)C1=O)CCN1C(=O)c2cccc3cc4ccccc4c(c23)C1=O` yielded a melting point of 255 °C.
In turn, `O=S(=O)(COc1ccc(Cl)cc1)c1ccc(Cl)cc1` had a melting point of 114 °C.
In the case of `Cc1cc(N)c(C)c(Cl)c1Oc1ccc(Cl)c2ccccc12` it was 118 to 125 °C; in that of `Cc1ccc(S(=O)(=O)CC2COc3ccccc3O2)cc1` (single isomer, unassigned; (+)), 60 °C; in that of `ON=Cc1ccc(-c2ccc(O)cc2)cc1`, 207 to 210 °C.
`Cc1nc(CC2(C)CCN(c3ccc(F)cc3)CC2)nc(C(=O)NCC(=O)O)c1O` gave a melting point of 140 to 141 °C.
In the case of `CCC(C)OC(=O)N1CCC(c2nc3cc(-c4ccc(-n5cnnn5)cc4F)ccc3o2)CC1` (stereo not given) it was 118 to 122 °C; in that of `CN(Cc1cc2c3c(c1)c(=O)c(C(=O)NCc1ccc(Cl)cc1)cn3CC(=O)N2C)C[C@@H](O)c1cnccn1`, 97 to 98 °C; in that of `O=C(NCc1ccc(Cl)cc1)c1cnc2sc(CN3CCOCC3)cc2c1O`, 193 to 195 °C.
As to `COc1cccc2c(Cl)nc(Cl)nc12`, the melting point was in the range of 155 to 157 °C.
For `COC(=O)C=Cc1ccc(OCc2nc(-c3ccco3)oc2C)c(OC)c1`, the melting point fell in the range of 129 to 130 °C.
In the case of `O=C(O)c1cn(C2CC2)c2c(F)c(N3CCNCC3)c(F)c(F)c2c1=O` it was 208 to 213 °C; in that of `CCOC(=O)CN1CCC(=C2c3ccc(Cl)cc3CCc3cccnc32)CC1`, 80 to 82 °C.
In the case of `O=c1c2ccc(Cl)cc2sn1CCCCl` it was 89 °C.
In the case of `CCCc1nc2c(N)nc3c(c2n1CC1(O)CCCC1)NCCC3` it was 207 to 208 °C.
Molecule `NC(=O)CN1CCN(c2cccccc2=O)CC1` displayed a melting point of 169 to 171 °C.
As for `CCNC(=O)c1ccc(N2CCN(Cc3cc4c(c(OC)c3)OC(C)C(=O)N4)CC2)c(Cl)c1` (stereo not given), the melting point fell in the range of 119 to 121 °C.
`OCc1cn(-c2ccc3c(c2)OC(F)(F)O3)cn1` registered a melting point of 163 to 164 °C.
Molecule `O=C1Nc2ccc(Cl)cc2C1(O)c1ccccc1OC(F)(F)F` (stereo not given) yielded a melting point of 214 °C.
Molecule `Cc1ccc(CCC(=O)C(=[N+]=[N-])C(=O)CCc2ccc(C)cc2)cc1` had a melting point of 45.6 to 46.8 °C.
In the case of `Cc1ccc(S(=O)(=O)Nc2ccc3nnc(C(=O)O)c(O)c3c2)cc1`, the melting point lay in the range of 272 to 273 °C.
`OCc1csc(Nc2ccc(Br)cn2)n1` yielded a melting point of 207 to 209 °C.
As for `N#Cc1ccc(N(Cc2ccc(OCc3ccccc3)cc2)n2cnnc2)cc1`, the melting point lay within 206 to 211 °C.
Molecule `OCC1CCn2c(nc3ccccc32)S1` (stereo not given) showed a melting point of 112 to 113 °C.
`C[C@H](Nc1nc(C#N)nc(Cl)c1-c1c(F)cc(F)cc1F)C(F)(F)F` gave a melting point of 134 to 136 °C.
As for `CCCCCCc1nc(N)n2nc(-c3ccco3)nc2n1`, the melting point lay within 131 to 133 °C.
`Cc1ccc(S(=O)(=O)N2[C@@H](CCl)CC[C@H]2c2ccc(F)cc2)cc1` (racemic) came in with a melting point of 130 °C.
With `COC(=O)CSc1nc(N2CCN(c3ncccn3)CC2)ncc1[N+](=O)[O-]`, the melting point was in the range of 250 to 252 °C.
Molecule `CCOc1ccc(F)c2c1c(CCN(C)C)cn2CC` showed a melting point of 59 to 60 °C.
For `COc1cc(-c2cnn3c(-c4cccc(NC(=O)CC(C)C)c4)ccnc23)cc(OC)c1OC`, the melting point lay in the range of 86 to 90 °C.
As for `O=C1Nc2cccnc2N(C(=O)N2CCCC(CCCCN3CCCC3)C2)c2ccccc21` (stereo not given), the melting point was in the range of 153 to 156 °C.
The molecule `CCOc1ccc(S(=O)(=O)N2CCN(C)CC2)cc1C(=O)O` returned a melting point of 201 °C.
In the case of `Cc1cc(CC(Cc2cc(C)c(O)c(C(C)(C)C)c2)(C(=O)OC2CC(C)(C)N(C)C(C)(C)C2)C(=O)OC2CC(C)(C)N(C)C(C)(C)C2)cc(C(C)(C)C)c1O` it was 150 °C; in that of `CCOc1ccc(-c2ccc3c(c2)C=C(C(=O)O)CCN3C=O)cc1F`, 220 to 222 °C.
Molecule `CS(=O)(=O)Nc1cc2c(cc1Oc1ccc(F)cc1F)C(O)CC2` (stereo not given) displayed a melting point of 119 °C.
In turn, `CCCCC(O)CNCCCCCCCCCCNCC(O)CCCC` (stereo not given) yielded a melting point of 127 to 137 °C.
The molecule `COc1ccc2nc(-c3ccc(OC)c(F)c3)cc(Cl)c2c1` displayed a melting point of 112 to 116 °C.
`CC(C)n1cc(-c2nc(C(N)=O)c(N)nc2-c2ccc(C#N)cc2)ccc1=O` displayed a melting point of 292 °C.
`CCC(C)CNC(=O)c1ccc2cccc(Cc3ccc(C(=O)O)cc3OC)c2c1` (stereo not given) returned a melting point of 220 to 221 °C.
In the case of `N#Cc1c(-c2cccc(N)c2)cc(-c2ccccc2O)nc1NC(=O)c1ccc(Cl)s1` it was 259 to 260 °C.
For the molecule `CCOP(=O)(CNCc1cccnc1-c1cc(OC)c(O)c(OC)c1)OCC`, the melting point fell in the range of 99 to 101 °C.
In turn, `O=C(Nc1cc(C(F)(F)F)cc(C(F)(F)F)c1)C1C(=O)C2CCC(C2)C1=O` (stereo not given) came in with a melting point of 88 to 90 °C.
In the case of `CNC(=O)N1CCC(=C2c3ccc(Cl)cc3CCc3cccnc32)CC1` it was 194 to 196 °C.
As for `CCCCCCCCCCC(C)(C)NC(=O)Nc1cc(OC)cc(C(C)(C)C)c1O`, the melting point was 99 to 102 °C.
Take `CSc1cc2c(cc1C(F)(F)F)N(C(=O)Nc1ccc(Oc3ccccc3)nc1)CC2`: the melting point lay in the range of 86 to 88 °C.
Regarding `CC(C)C(C)CCC(C)C1CCC2C3CCC4CC(OC(=O)c5ccccc5)CCC4(C)C3CCC12C` (stereo not given), the melting point lay within 232 to 234 °C.
As for `CCOC(=O)C1[C@@H]2[C@@H](O)[C@@H]3O[C@H](c4ccccc4)OC[C@H]3O[C@H]12` (stereo not given in full), the melting point was in the range of 137 to 139 °C.
`Cc1nnc2n1-c1sccc1C(c1ccccc1)=NC2`: the melting point lay within 224 to 226 °C.
`C[C@]12CCC(=O)N[C@@H]1CCc1cc(Sc3cccc(Cl)c3)ccc12` yielded a melting point of 186 to 187 °C.
In the case of `COc1cc(C2CCN(CC(O)CF)CC2)ccc1Nc1ncc2ccc(-c3ccccc3N(C)S(C)(=O)=O)n2n1` (stereo not given) it was 82 to 95 °C; in that of `Cc1c(F)cc(C(C)(C)C)c(O)c1-c1nc2ccc(F)cc2c(=O)[nH]1`, 247 to 248 °C; in that of `O=c1c2ccccc2n(CCCCN2CCC(OC(c3ccccc3)c3ccccc3)CC2)c(=O)n1CCO`, 145 to 150 °C.
With `CN=C(SCc1ccc(OC)cc1)C1(c2cccnc2)CCCCC1CCO` (stereo not given), the melting point was 145 to 146 °C.
Turning to `CCCc1c(OCCCCCOc2ccc3ccc(OCC(=O)OCC)cc3c2CCC(=O)OCC)ccc2c1OCCC2=O`, the melting point was 68 to 69.5 °C.

These data come from a melting point compilation (Tetko et al.; mined from patent text by program, amines drawn as free bases though some values may be those of a salt).
